Test results published in US9695155B2, “Herbicidal substituted pyrimidinyloxy benzene compounds” (E. I. DU PONT DE NEMOURS AND COMPANY, priority 2013, dated 2017).

Assays:
lambsquarters = assay: Test C postemergence; type: in vivo, Chenopodium album; conditions: for Plant response rating (0 to 100), Lambsquarters: postemergence; for Plant response rating, Lambsquarters: Postemergence, scale 0 to 100 (0 no effect, 100 complete control)
How it was run: (§1)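 Injury was assessed visually against controls 13 to 15 days after application, with 0 meaning no effect and 100 full control; missing entries are shown as a dash. Preemergence sprays hit seeded loam–sand soil, postemergence sprays hit 1- to 4-leaf plants.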

velvetleaf = assay: Test C postemergence; type: in vivo, Abutilon theophrasti; conditions: for Plant response rating (0 to 100), Velvetleaf: postemergence; for Plant response rating, Velvetleaf: Postemergence, scale 0 to 100 (0 no effect, 100 complete control)
How it was run: as §1

barnyardgrass [1] = assay: Test A postemergence; type: in vivo, Echinochloa crus-galli
How it was run: (§2)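 Visual injury scored 0–100 (100 = complete control) against untreated controls about 10 days after treatment in a greenhouse. Test chemicals, formulated with surfactant in non-phytotoxic solvent, were sprayed on soil preemergence or on 2-10 cm, one- to two-leaf plants postemergence.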

corn = assay: Test A preemergence; type: in vivo, Zea mays
How it was run: as §2

wheat = assay: Test A postemergence; type: in vivo, Triticum aestivum
How it was run: as §2

blackgrass = assay: Test C postemergence; type: in vivo, Alopecurus myosuroides; conditions: for Plant response rating (0 to 100), Blackgrass: postemergence; for Plant response rating, Blackgrass: Postemergence, scale 0 to 100 (0 no effect, 100 complete control)
How it was run: as §1

ragweed = assay: Test C postemergence; type: in vivo, Ambrosia elatior; conditions: for Plant response rating (0 to 100), Ragweed: postemergence; for Plant response rating, Ragweed: Postemergence, scale 0 to 100 (0 no effect, 100 complete control)
How it was run: as §1

barnyardgrass [2] = assay: Test A preemergence; type: in vivo, Echinochloa crus-galli
How it was run: as §2

galium = assay: Test C postemergence; type: in vivo, Galium aparine; conditions: for Plant response rating (0 to 100), Galium: postemergence; for Plant response rating, Galium: Postemergence, scale 0 to 100 (0 no effect, 100 complete control)
How it was run: as §1

giant foxtail = assay: Test C postemergence; type: in vivo, Setaria faberii; conditions: for Plant response rating (0 to 100), Foxtail, Giant: postemergence; for Plant response rating, Foxtail, Giant: Postemergence, scale 0 to 100 (0 no effect, 100 complete control)
How it was run: as §1

soybean = assay: Test C postemergence; type: in vivo, Glycine max; conditions: for Plant response rating (0 to 100), Soybean: postemergence; for Plant response rating, Soybean: Postemergence, scale 0 to 100 (0 no effect, 100 complete control)
How it was run: as §1

[3] = 125 g ai/ha, 0 to 100 scale where 0 is no effect and 100 is complete control
[4] = 500 g ai/ha, 0 to 100 scale, 0 no effect, 100 complete control
[5] = 500 g ai/ha, 0 to 100 scale, 0 no effect, 100 complete control, approx. 10 days

SMILES: Fc1cnc(Oc2ccccc2-n2cc(C(F)(F)F)cn2)nc1 [Compound 47]
- Plant response rating (0 to 100), Lambsquarters (lambsquarters; 125 g ai/ha): 60
- Plant response rating (0 to 100), Lambsquarters (lambsquarters; 250 g ai/ha): 90
- Plant response rating, Lambsquarters (lambsquarters; 31 g ai/ha, 13 to 15 days): 30
- Plant response rating, Lambsquarters (lambsquarters; 62 g ai/ha): 45
- Plant response rating (0 to 100), Velvetleaf (velvetleaf; 125 g ai/ha): 70
- Plant response rating (0 to 100), Velvetleaf (velvetleaf; 250 g ai/ha): 100
- Plant response rating, Velvetleaf (velvetleaf; 31 g ai/ha, 13 to 15 days): 45
- Plant response rating, Velvetleaf (velvetleaf; 62 g ai/ha): 50
- Plant response rating, Barnyardgrass (barnyardgrass [1]; [3]): 30
- Plant response rating, Barnyardgrass (barnyardgrass [1]; [4]): 100
- Plant response rating, Corn (corn; [3]): 0
- Corn plant response rating (corn; [5]): 90
- Plant response rating, Wheat (wheat; [3]): 60
- Plant response rating, Wheat (wheat; [4]): 100
- Plant response rating (0 to 100), Blackgrass (blackgrass; 125 g ai/ha): 5
- Plant response rating (0 to 100), Blackgrass (blackgrass; 250 g ai/ha): 40
- Plant response rating, Blackgrass (blackgrass; 31 g ai/ha, 13 to 15 days): 0
- Plant response rating, Blackgrass (blackgrass; 62 g ai/ha): 0
- Plant response rating (0 to 100), Ragweed (ragweed; 125 g ai/ha): 50
- Plant response rating (0 to 100), Ragweed (ragweed; 250 g ai/ha): 85
- Plant response rating, Ragweed (ragweed; 31 g ai/ha, 13 to 15 days): 20
- Plant response rating, Ragweed (ragweed; 62 g ai/ha): 50
- Plant response rating, Barnyardgrass (barnyardgrass [2]; [3]): 20
- Barnyardgrass plant response rating (barnyardgrass [2]; [5]): 100
- Plant response rating (0 to 100), Galium (galium; 125 g ai/ha): 55
- Plant response rating (0 to 100), Galium (galium; 250 g ai/ha): 65
- Plant response rating, Galium (galium; 31 g ai/ha, 13 to 15 days): 35
- Plant response rating, Galium (galium; 62 g ai/ha): 50
- Plant response rating (0 to 100), Foxtail, Giant (giant foxtail; 125 g ai/ha): 25
- Plant response rating (0 to 100), Foxtail, Giant (giant foxtail; 250 g ai/ha): 80
- Plant response rating, Foxtail, Giant (giant foxtail; 31 g ai/ha, 13 to 15 days): 10
- Plant response rating, Foxtail, Giant (giant foxtail; 62 g ai/ha): 25
- Plant response rating (0 to 100), Soybean (soybean; 125 g ai/ha): 65
- Plant response rating (0 to 100), Soybean (soybean; 250 g ai/ha): 65
- Plant response rating, Soybean (soybean; 31 g ai/ha, 13 to 15 days): 35
- Plant response rating, Soybean (soybean; 62 g ai/ha): 45
